# Test results: patent EP1407768A2, “The potassium channel opener retigabine for the treatment of diseases” (GLAXO GROUP LIMITED, priority 1999, dated 2001)
# Like-named read-outs stand apart in the source and are kept apart here.
# Key:
# [1] = test system: carageenan model of inflammatory pain; test: Carageenan model of inflammatory pain; type: in vivo
# Text: Br. J. Pharmacol. 120: P78).
# [2] = biological target: T1, KCNQ2/3 potassium channel (Homo sapiens, UniProt O43525+O43526); test: Two-microelectrode voltage-clamp of Xenopus oocytes expressing equimolar KCNQ2 plus KCNQ3; type: cell-based; conditions: for fold induction at 10 µM: read-out: increase of outward KCNQ current amplitude, 10µM retigabine; for increase of the rate of current activation: data fitted to a single exponential
# T1 construct: expressed in transfected cells; host or cells: Xenopus laevis oocytes injected with capped cRNA (KCNQ2 in pCIN3, KCNQ3 in pCIH6)
# T1 sequence (O43526 1-844 isoform O43526-3): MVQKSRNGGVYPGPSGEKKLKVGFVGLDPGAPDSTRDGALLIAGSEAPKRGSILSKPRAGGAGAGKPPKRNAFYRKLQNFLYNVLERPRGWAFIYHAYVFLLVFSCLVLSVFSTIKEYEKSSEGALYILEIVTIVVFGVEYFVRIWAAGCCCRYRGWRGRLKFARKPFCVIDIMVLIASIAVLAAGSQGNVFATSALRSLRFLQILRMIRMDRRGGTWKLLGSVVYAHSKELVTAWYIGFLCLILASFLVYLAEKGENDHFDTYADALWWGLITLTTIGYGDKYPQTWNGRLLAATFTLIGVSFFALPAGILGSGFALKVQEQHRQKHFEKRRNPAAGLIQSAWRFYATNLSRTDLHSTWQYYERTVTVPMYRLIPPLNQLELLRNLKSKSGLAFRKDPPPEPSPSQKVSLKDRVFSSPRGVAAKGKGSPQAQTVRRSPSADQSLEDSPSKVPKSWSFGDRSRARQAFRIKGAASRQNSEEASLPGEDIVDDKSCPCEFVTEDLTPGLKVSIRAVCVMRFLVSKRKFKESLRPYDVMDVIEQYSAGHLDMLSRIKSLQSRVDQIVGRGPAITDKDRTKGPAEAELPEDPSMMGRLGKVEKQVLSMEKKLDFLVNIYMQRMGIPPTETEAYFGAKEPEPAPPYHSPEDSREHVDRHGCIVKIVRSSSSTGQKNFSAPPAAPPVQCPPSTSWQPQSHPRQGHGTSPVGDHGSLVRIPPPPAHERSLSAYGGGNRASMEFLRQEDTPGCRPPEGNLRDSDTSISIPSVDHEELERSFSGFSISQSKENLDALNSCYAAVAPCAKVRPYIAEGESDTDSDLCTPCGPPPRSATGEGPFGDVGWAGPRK
# T1 sequence (O43525 whole entry): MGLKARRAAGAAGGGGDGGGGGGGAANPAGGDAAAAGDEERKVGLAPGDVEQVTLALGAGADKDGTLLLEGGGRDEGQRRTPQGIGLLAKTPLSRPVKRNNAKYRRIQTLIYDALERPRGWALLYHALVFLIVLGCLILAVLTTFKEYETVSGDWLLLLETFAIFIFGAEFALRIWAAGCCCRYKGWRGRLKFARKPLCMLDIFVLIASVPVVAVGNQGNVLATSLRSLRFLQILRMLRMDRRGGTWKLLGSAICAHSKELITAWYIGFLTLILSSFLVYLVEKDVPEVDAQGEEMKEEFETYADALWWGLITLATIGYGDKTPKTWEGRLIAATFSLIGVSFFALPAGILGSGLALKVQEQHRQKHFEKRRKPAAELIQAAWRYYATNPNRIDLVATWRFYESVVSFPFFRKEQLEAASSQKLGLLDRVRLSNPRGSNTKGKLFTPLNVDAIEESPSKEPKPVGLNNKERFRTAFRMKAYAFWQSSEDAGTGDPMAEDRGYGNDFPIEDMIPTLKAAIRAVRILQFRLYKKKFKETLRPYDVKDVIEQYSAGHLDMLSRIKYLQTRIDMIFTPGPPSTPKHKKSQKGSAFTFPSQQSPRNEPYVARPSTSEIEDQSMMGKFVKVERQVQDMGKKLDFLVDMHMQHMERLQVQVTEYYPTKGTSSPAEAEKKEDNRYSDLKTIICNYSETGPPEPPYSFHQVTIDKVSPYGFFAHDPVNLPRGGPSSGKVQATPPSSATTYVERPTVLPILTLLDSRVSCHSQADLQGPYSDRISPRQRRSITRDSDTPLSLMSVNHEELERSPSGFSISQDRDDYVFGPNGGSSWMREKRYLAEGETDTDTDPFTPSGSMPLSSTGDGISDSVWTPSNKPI
# Text: Human KCNQ2 and KCNQ3 potassium channels were cloned from a human brain CDNA library using standard methodology. All clones were sequenced and were identical to those reported in the literature (Charlier, C., Singh, N.A., Ryan, S.G., Lewis, T.B., Reus, B. E., Leach, R.J. Leppert, M. (1998). A pore mutation in a novel KQT-like potassium channel gene in an idiopathic epilepsy family. Nature Genetics 18: 53-55 and Singh, N.A., Charlier, C., Stauffer, D., DuPont, B.R., Leach, R.J., Melis, R., Ronen, G.M., Bjerre, I., Quattlebaum, T., Murphy, J.V., McHarg, M.L., Gagnon, D., Rosales, T.O., Peiffer, A., Anderson, E & Leppert, M. (1998) Nature Genetics, 18: 25-29).
# Adult female Xenopus laevis (Blades Biologicals) were anaesthetised using 0.2% tricaine (3-aminobenzoic acid ethyl ester), killed and the ovaries rapidly removed. Oocytes were de-folliculated by collagenase digestion (Sigma type I, 1.5 mg ml^-1) in divalent cation-free OR2 solution (82.5mM NaCl, 2.5mM KCI, 1.2mM NaH2PO4, 5mM HEPES; pH 7.5 at 25°C). Single stage V and VI oocytes were transferred to ND96 solution (96mM NaCl, 2mM KCI, 1mM MgCl2, 1.8mM CaCl2, 5mM HEPES; pH 7.5 at 25°C) which contained 50µg ml^- ^1 gentamycin and stored at 18°C.
# KCNQ2 (in pCIN3 vector) and KCNQ3 (in pCIH6) were linearised and transcribed to RNA using T7 or T3 polymerase (Promega Wizard kit). m'G(5')pp(5')GTP capped cRNA was injected into oocytes (20-50nl of 1µgµl^-1 RNA per oocyte) and whole-cell currents were recorded using two-microelectrode voltage-clamp (Geneclamp amplifier, Axon instruments Inc.) 3 to 5 days post-RNA injection. […] In all experiments oocytes were voltage-clamped at a holding potential of -90mV in ND96 solution (superfused at 2ml per min.) and test compounds were applied by addition to this extracellular solution. Current-voltage curves were constructed by applying 800ms voltage-clamp pulses from the holding potential of -90mV to test potentials between -85mV and +30mV..
# Whole-cell currents were recorded from oocytes expressing KCNQ2 alone, KCNQ3 alone and an equimolar combination of KCNQ2 plus KCNQ3. Mean current amplitude (at +20mV) was 152 +/- 21 nA for KCNQ2 alone, 157 +/-19nA for KCNQ3 alone and 1467 +/- 420nA for KCNQ2 & KCNQ3. Further characterisation of the KCNQ2/KCNQ3 heteromeric channel (current-voltage curve, conductance plot, linopirdine block) gave similar results to those reported in the literature (Yang, W.-P., Levesque, P.C., Little, W.A., Conder, M.L., Ramakrishnan, P., Neubauer, M.G. & Blanar, M.A, (1998) Functional expression of two KvLQT1-related potassium channels responsible for an inherited idiopathic epilepsy. J. Biol. Chem., 31: 19419-19423 and Wang, H.-S., Pan, Z., Shi, W., Brown, B.S.,. Wymore, R.S., Cohen, I.S., Dixon, J.E. & McKinnon, D (1998) KCNQ2 and KCNQ3 potassium channel subunits: molecular correlates of the M-channel. Science 282: 1890-1893).
# The effects of retigabine were studied in oocytes expressing equimolar KCNQ2 plus KCNQ3. Application of 10µM retigabine led to a pronounced 20mV hyperpolarising shift in the threshold for KCNQ current activation (n=5), such that an augmentation of KCNQ current was seen over the normal physiological range of membrane potentials. For example, at a test potential of -60mV, outward KCNQ current amplitude increased 8-fold in the presence of retigabine (6.2-fold at -70mV; 7.1-fold at -50mV; n=5). These changes in KCNQ current amplitude were associated with an increase in the rate of current activation: Retigabine increased the rate of current activation 15-fold at a test potential of -40mV, and 3-fold at a test potential of -30mV (data fitted to a single exponential in each case).
# Application of retigabine led to a marked alteration in the properties of the KCNQ2/3 tail currents. In these experiments the voltage clamp protocols comprised a 1s prepulse from -100mV to +40mV to fully activate the KCNQ2/3 channel, followed by a 6s pulse to test potentials between -30mV and -110mV.
# KCNQ2 = biological target: T2, KCNQ2 (Homo sapiens, UniProt O43526); test: Voltage-clamp of Xenopus oocytes expressing KCNQ2 alone (pSP64t vector); type: cell-based; conditions: 10µM retigabine
# T2 construct: expressed in transfected cells; host or cells: Xenopus oocytes, expression vector pSP64t
# T2 sequence (O43526 1-844 isoform O43526-3): as the sequence (O43526 1-844 isoform O43526-3) above
# [3] = biological target: T1, KCNQ2/3 potassium channel; test: Current clamp of oocytes expressing KCNQ2 plus KCNQ3: hyperpolarisation of the cell; type: cell-based
# [4] = test system: pentylene tetrazol-induced seizures in rats; conditions: protection against pentylene tetrazol-induced seizures in rats; cited from earlier work
smiles,measurement,setting,value
"CCOC(=O)Nc1ccc(NCc2ccc(F)cc2)cc1N [retigabine, 2-amino-4-(4-fluorobenzylamino)-1-ethoxycarbonylaminobenzene]",ED50,[1],4.5 mg/kg
same,hyperpolarising shift in the threshold for KCNQ current activation,"[2]; 10µM retigabine, oocytes expressing equimolar KCNQ2 plus KCNQ3, n=5",20 mV
same,fold induction at 10 µM,"[2]; test potential -50mV, n=5",7.1
same,fold induction at 10 µM,"[2]; test potential -60mV, n=5",8
same,fold induction at 10 µM,"[2]; test potential -70mV, n=5",6.2
same,increase of the rate of current activation,[2]; test potential -30mV,3 fold
same,increase of the rate of current activation,[2]; test potential -40mV,15 fold
same,KCNQ2/3 tail current deactivation,"[2]; test potentials -30mV, -40mV after 1s prepulse from -100mV to +40mV",deactivation does not occur
same,rate of KCNQ2/3 channel deactivation in comparison to control,[2]; test potentials -50mV to -110mV after 1s prepulse from -100mV to +40mV,significantly slowed
same,mean delay (rate of current activation),"KCNQ2; at -40mV, control 132+/-16ms",75 ± 7 ms
same,KCNQ current amplitude,"KCNQ2; at -50mV, n=7, control = 145+/-34nA",501+/-116 nA
same,hyperpolarising shift in the threshold for KCNQ2 current activation,KCNQ2; oocytes expressing KCNQ2 alone,20 mV
same,EC50,[3],5.2 µM
same,Hill slope,[3]; hyperpolarisation of oocytes held under current clamp,1.1 ± 0.1
same,ED50,[4],6.2 mg/kg
